Data set [1] has as its system T-cell. In words: Immunosuppressive activity in T cells (unknown origin) assessed as inhibition of Con A-induced cell proliferation at 3 to 30 ng/mL. It is filed as functional, cell-based.
Data set [2] relates to B-cell. The experiment in a line: Immunosuppressive activity in B cells (unknown origin) assessed as inhibition of LPS-induced cell proliferation at 3 to 30 ng/mL. The class given is functional, cell-based.
For data set [3], the system named is Mus musculus. In words: Toxicity in male ICR-SPF mouse assessed as autopsy changes at 30 mg/kg, iv administered as single dose measured 14 days post dose. The class given is organism-based. Further details: dose 30 mg/kg, route intravenous. To be noted: in vivo, 336 h.
Data set [4] concerns Mus musculus. The experiment in a line: Toxicity in male ICR-SPF mouse assessed as induction of body weight changes at 30 mg/kg, iv administered as single dose measured 14 days post dose. The class given is organism-based. Further details: dose 30 mg/kg, route intravenous. To be noted: in vivo, 336 h.
The test system of data set [5] is Mus musculus. In words: Toxicity in female ICR-SPF mouse assessed as mortality incidences at 10 mg/kg, iv administered as single dose measured 14 days post dose. Further details: dose 10 mg/kg, route intravenous. It is filed as organism-based. To be noted: in vivo, 336 h.
Data set [6] has as its system Mus musculus. In words: Toxicity in male ICR-SPF mouse assessed as mortality incidences at 30 mg/kg, iv administered as single dose measured 14 days post dose. The class given is organism-based. Further details: dose 30 mg/kg, route intravenous. To be noted: in vivo, 336 h.
Data set [7] relates to Mus musculus. The experiment in a line: Toxicity in male ICR-SPF mouse assessed as induction of body weight changes at 10 mg/kg, iv administered as single dose measured 14 days post dose. The class given is organism-based. Further details: dose 10 mg/kg, route intravenous. The settings on record: in vivo, 336 h.
The subject of data set [8] is Mus musculus. The experiment in a line: Toxicity in C57BL/6 mouse assessed as induction of body weight loss at 0.1 to 3 mg/kg, iv dosed once daily for 4 days. The class given is organism-based. Further details: dose 0.1-3 mg/kg, route intravenous. To be noted: in vivo, 96 h.
The test system of the next data set is Dendritic cell. In words: Inhibition of LPS-induced IL-12 production in bone marrow-derived dendritic cells (unknown origin) at 1 to 100 ng/mL. It is filed as functional, cell-based.
Data set [9] has as its system Mus musculus. In words: Toxicity in iv dosed male ICR-SPF mouse administered as single dose measured 14 days post dose. To be noted: in vivo, 336 h. It is filed as organism-based.
The subject of data set [10] is Mus musculus. The experiment in a line: Toxicity in C57BL/6 mouse assessed as induction of spleen weight loss at 0.1 to 3 mg/kg, iv dosed once daily for 4 days. The class given is organism-based. Further details: dose 0.1-3 mg/kg, route intravenous. The settings on record: in vivo, 96 h.
Data set [11] concerns Mus musculus. In words: Toxicity in female ICR-SPF mouse assessed as autopsy changes at 10 mg/kg, iv administered as single dose measured 14 days post dose. The class given is organism-based. Further details: dose 10 mg/kg, route intravenous. The settings on record: in vivo, 336 h.
The test system of data set [12] is Mus musculus. In words: Immunosuppressive activity in carrageenan-induced paw edema C57BL/6 mouse model assessed as reduction in pLN weight increase dosed after carrageenan challenge. It is filed as functional, organism-based.
Data set [13] concerns B-cell. In words: Immunosuppressive activity in B cells (unknown origin) assessed as inhibition of LPS-induced cell proliferation at 1 to 100 ng/mL. It is filed as functional, cell-based.
Data set [14] deals with Mus musculus. The experiment in a line: Toxicity in female ICR-SPF mouse assessed as induction of body weight changes at 100 mg/kg, iv administered as single dose measured 14 days post dose. Further details: dose 100 mg/kg, route intravenous. The class given is organism-based. To be noted: in vivo, 336 h.
Data set [15] concerns Mus musculus. The experiment in a line: Toxicity in female ICR-SPF mouse assessed as mortality incidences at 30 mg/kg, iv administered as single dose measured 14 days post dose. Further details: dose 30 mg/kg, route intravenous. The class given is organism-based. To be noted: in vivo, 336 h.
Another data set concerns RAW264.7. The experiment in a line: Inhibition of nitric oxide production in mouse RAW264.7 cells at 1 to 100 ng/mL. The class given is functional, cell-based.
For data set [16], the system named is Mus musculus. In words: Toxicity in male ICR-SPF mouse assessed as autopsy changes at 10 mg/kg, iv administered as single dose measured 14 days post dose. The class given is organism-based. Further details: dose 10 mg/kg, route intravenous. To be noted: in vivo, 336 h.
The test system of data set [17] is Mus musculus. The experiment in a line: Toxicity in male ICR-SPF mouse assessed as mortality incidences at 100 mg/kg, iv administered as single dose measured 14 days post dose. It is filed as organism-based. Further details: dose 100 mg/kg, route intravenous. The settings on record: in vivo, 336 h.
Data set [18] relates to Mus musculus. The experiment in a line: Toxicity in male ICR-SPF mouse assessed as induction of body weight changes at 100 mg/kg, iv administered as single dose measured 14 days post dose. The class given is organism-based. Further details: dose 100 mg/kg, route intravenous. To be noted: in vivo, 336 h.
The subject of data set [19] is Mus musculus. The experiment in a line: Toxicity in male ICR-SPF mouse assessed as mortality incidences at 10 mg/kg, iv administered as single dose measured 14 days post dose. It is filed as organism-based. Further details: dose 10 mg/kg, route intravenous. The settings on record: in vivo, 336 h.
For data set [20], the system named is Mus musculus. The experiment in a line: Toxicity in female ICR-SPF mouse assessed as induction of body weight changes at 30 mg/kg, iv administered as single dose measured 14 days post dose. The class given is organism-based. Further details: dose 30 mg/kg, route intravenous. The settings on record: in vivo, 336 h.
For data set [21], the system named is Mus musculus. The experiment in a line: Toxicity in female ICR-SPF mouse assessed as induction of body weight changes at 10 mg/kg, iv administered as single dose measured 14 days post dose. It is filed as organism-based. Further details: dose 10 mg/kg, route intravenous. The settings on record: in vivo, 336 h.
Data set [22] deals with Mus musculus. In words: Toxicity in female ICR-SPF mouse assessed as mortality incidences at 100 mg/kg, iv administered as single dose measured 14 days post dose. It is filed as organism-based. Further details: dose 100 mg/kg, route intravenous. The settings on record: in vivo, 336 h.
Data set [23] relates to Mus musculus. The experiment in a line: Toxicity in male ICR-SPF mouse assessed as autopsy changes at 100 mg/kg, iv administered as single dose measured 14 days post dose. It is filed as organism-based. Further details: dose 100 mg/kg, route intravenous. To be noted: in vivo, 336 h.
The subject of a further data set is Macrophage. In words: Inhibition of nitric oxide production in bone marrow-derived macrophages (unknown origin) at 1 to 100 ng/mL. It is filed as functional, cell-based.
In data set [24] the test system is Mus musculus. The experiment in a line: Immunosuppressive activity in zymosan A-induced arthritis C57BL/6 mouse model assessed as reduction in pLN weight increase dosed after zymosan A challenge. It is filed as functional, organism-based.
For data set [25], the species on record is Mus musculus. The experiment in a line: Immunosuppressive activity in SRBC immunized mouse assessed as suppression of B-cell mediated immune response. The class given is functional, organism-based.
Data set [26] concerns T-cell. In words: Immunosuppressive activity in T cells (unknown origin) assessed as inhibition of Con A-induced cell proliferation at 1 to 100 ng/mL. It is filed as functional, cell-based.
Data set [27] relates to Mus musculus. The experiment in a line: Toxicity in female ICR-SPF mouse assessed as autopsy changes at 100 mg/kg, iv administered as single dose measured 14 days post dose. The class given is organism-based. Further details: dose 100 mg/kg, route intravenous. To be noted: in vivo, 336 h.
The nature of data set [28]: Toxicity in LPS-induced bone marrow-derived dendritic cells (unknown origin) assessed as effect on cell viability at 1 to 100 ng/mL. The class given is cell-based.
For data set [29], the system named is Mus musculus. In words: Toxicity in iv dosed female ICR-SPF mouse administered as single dose measured 14 days post dose. It is filed as organism-based. To be noted: in vivo, 336 h.
In data set [30] the test system is Mus musculus. The experiment in a line: Intestinal toxicity in C57BL/6 mouse assessed as induction of intestinal dilation at 1 mg/kg, iv dosed once daily for 4 days. It is filed as organism-based. To be noted: in vivo, 96 h. Further details: dose 1 mg/kg, route intravenous.
In data set [31] the test system is Mus musculus. In words: Toxicity in C57BL/6 mouse assessed as induction of body weight loss at 1 mg/kg, iv dosed once daily for 4 days. It is filed as organism-based. Further details: dose 1 mg/kg, route intravenous. To be noted: in vivo, 96 h.
Data set [32] deals with Mus musculus. The experiment in a line: Toxicity in female ICR-SPF mouse assessed as autopsy changes at 30 mg/kg, iv administered as single dose measured 14 days post dose. It is filed as organism-based. Further details: dose 30 mg/kg, route intravenous. To be noted: in vivo, 336 h.

The source made the active and inactive calls. The rule behind the calls is not given here.

With `COc1ccc(-c2ccc(OC)c(=O)cc2)c(OC)c1OC`, the inhibition entry in the data set on T-cell [1] and in the data set on B-cell [2] was “Active” each time.
Turning to `COc1ccc(/C=C/c2ccc(OC)c(=O)cc2)c(OC)c1OC`, the inhibition entry in the data set on T-cell [1] and with B-cell [2] was “inactive” throughout.
Consider `COc1cc2c(c(OC)c1OC)-c1ccc(SC)c(=O)cc1CCC2`, for which the Activity entry in the data set on Mus musculus [3], in the data set with Mus musculus [4], with Mus musculus [5], with Mus musculus [6], in the data set with Mus musculus [7] and in the data set on Mus musculus [8] was “Non-toxic” each time. Further, the Activity result in the data set with Mus musculus [10], with Mus musculus [11], in the data set on Mus musculus [14], with Mus musculus [15], with Mus musculus [16] and with Mus musculus [17] was “Non-toxic” each time. The Activity result in the data set with Mus musculus [18], in the data set on Mus musculus [19], in the data set on Mus musculus [20], in the data set with Mus musculus [21], with Mus musculus [22] and in the data set on Mus musculus [23] was “Non-toxic” throughout. Moreover, the Activity result was “Dose-dependent effect” in the data set listed under Mus musculus [25]; “Non-toxic” with Mus musculus [27]; “Non-toxic” in [28]; “Non-toxic” in the data set with Mus musculus [30]; “Non-toxic” in the data set on Mus musculus [31]; “Non-toxic” with Mus musculus [32]. In addition, the inhibition entry in the data set on Dendritic cell, in the data set on Mus musculus [12], in the data set with B-cell [13], in the data set on Mus musculus [24] and in the data set on T-cell [26] was “Dose-dependent effect” throughout. In addition, the MLD in the data set with Mus musculus [9] and in the data set on Mus musculus [29] was above 100 mg/kg throughout. In addition, in the data set with RAW264.7, the inhibition result was “Active”. The inhibition entry in the data set with Macrophage was “inactive”.
As for `COc1ccc(C/C=C/c2ccc(OC)c(=O)cc2)c(OC)c1OC`, the inhibition result in the data set on T-cell [1] and with B-cell [2] was “inactive” in each case.
Turning to `COc1cc(C/C=C/c2ccc(OC)c(=O)cc2)cc(OC)c1OC`, the inhibition entry in the data set on T-cell [1] and in the data set with B-cell [2] was “inactive” in each case.
For the compound `COc1cc(/C=C/c2ccc(OC)c(=O)cc2)cc(OC)c1OC`, the inhibition entry in the data set on T-cell [1] and in the data set with B-cell [2] was “inactive” each time.
Turning to `COc1cc2c(c(OC)c1OC)-c1ccc(SC)c(=O)cc1[C@@H](NC(=O)C1CC1C)CC2` (stereo partly specified), the Activity result in the data set on Mus musculus [8], with Mus musculus [10] and in the data set on Mus musculus [30] was “Toxic” in each case.
Take `COc1cc2c(c(OC)c1OC)-c1ccc(SC)c(=O)cc1C=CC2`: the Activity entry in the data set on Mus musculus [3], in the data set with Mus musculus [4], with Mus musculus [5], in the data set on Mus musculus [6], in the data set on Mus musculus [7] and in the data set with Mus musculus [8] was “Non-toxic” each time. The Activity result in the data set on Mus musculus [10], in the data set on Mus musculus [11], in the data set on Mus musculus [14], with Mus musculus [15], with Mus musculus [16] and in the data set with Mus musculus [17] was “Non-toxic” each time. Moreover, the Activity result in the data set on Mus musculus [18], with Mus musculus [19], in the data set with Mus musculus [20], in the data set with Mus musculus [21], in the data set with Mus musculus [22] and with Mus musculus [23] was “Non-toxic” throughout. Besides, the Activity entry in the data set filed under Mus musculus [25] was “Dose-dependent effect”; in the data set with Mus musculus [27] it was “Non-toxic”; in data set [28], “Non-toxic”; in the data set with Mus musculus [30] it was “Non-toxic”; with Mus musculus [31], “Non-toxic”; in the data set on Mus musculus [32] it was “Non-toxic”. The inhibition entry with Dendritic cell, in the data set with Mus musculus [12], with B-cell [13], in the data set on Mus musculus [24] and with T-cell [26] was “Dose-dependent effect” each time. Besides, the MLD with Mus musculus [9] and in the data set with Mus musculus [29] was above 100 mg/kg in each case. For the same compound, the inhibition entry in the data set with RAW264.7 is “Active”. Further, the inhibition entry with Macrophage is “inactive”.
`COc1ccc(-c2ccc(SC)c(=O)cc2)c(OC)c1OC`: the inhibition entry with T-cell [1] and in the data set on B-cell [2] was “Active” each time.
